# From PubChem BioAssay AID1259407 (Chemical Carcinogenesis Research Information System (CCRIS), 2018)
# Calls of active or inactive are those of the source. No rule for the calls is given here.
# System: CCRIS mutagenicity, Ames/micronucleus/aberration tests
# Experiment: CCRIS mutagenicity studies
# [1] = Test System: AMES SALMONELLA TYPHIMURIUM, Strain/Indicator: TA98, Metabolic Activation: HAMSTER, LIVER, S-9, AROCLOR 1254 (30%), Method: PREINCUBATION
# [2] = Test System: AMES SALMONELLA TYPHIMURIUM, Strain/Indicator: TA98, Metabolic Activation: NONE, Method: PREINCUBATION
# [3] = Test System: AMES SALMONELLA TYPHIMURIUM, Strain/Indicator: TA98, Metabolic Activation: RAT, LIVER, S-9, AROCLOR 1254 (30%), Method: PREINCUBATION
# [4] = Test System: AMES SALMONELLA TYPHIMURIUM, Strain/Indicator: TA100, Metabolic Activation: HAMSTER, LIVER, S-9, AROCLOR 1254 (30%), Method: PREINCUBATION
# [5] = Test System: AMES SALMONELLA TYPHIMURIUM, Strain/Indicator: TA100, Metabolic Activation: NONE, Method: PREINCUBATION
# [6] = Test System: AMES SALMONELLA TYPHIMURIUM, Strain/Indicator: TA100, Metabolic Activation: RAT, LIVER, S-9, AROCLOR 1254 (30%), Method: PREINCUBATION
# [7] = Test System: AMES SALMONELLA TYPHIMURIUM, Strain/Indicator: TA100, Metabolic Activation: NONE, Method: DESICCATOR
# [8] = Test System: AMES SALMONELLA TYPHIMURIUM, Strain/Indicator: TA98, Metabolic Activation: NONE, Method: STANDARD PLATE
# [9] = Test System: AMES SALMONELLA TYPHIMURIUM, Strain/Indicator: TA98, Metabolic Activation: RAT, LIVER, S-9, AROCLOR 1254, Method: STANDARD PLATE
# [10] = Test System: AMES SALMONELLA TYPHIMURIUM, Strain/Indicator: TA100, Metabolic Activation: NONE, Method: STANDARD PLATE
# [11] = Test System: AMES SALMONELLA TYPHIMURIUM, Strain/Indicator: TA100, Metabolic Activation: RAT, LIVER, S-9, AROCLOR 1254, Method: STANDARD PLATE
# [12] = Test System: AMES SALMONELLA TYPHIMURIUM, Strain/Indicator: TA97, Metabolic Activation: NONE, Method: STANDARD PLATE
compound,measurement,setting,value
CCCCCC(O)/C=C/C=O (stereo not given),mutagenic call,"End Point: IN VITRO CHROMOSOMAL ABERRATIONS, Test System: RAT HEPATOCYTES, Metabolic Activation: NONE",active; positive
same,mutagenic call,"End Point: IN VITRO CHROMOSOMAL ABERRATIONS, Test System: SWINE- BRAIN ENDOTHELIAL CELLS, Metabolic Activation: NONE",active; positive
same,mutagenic call,"End Point: IN VITRO MICRONUCLEUS, Test System: RAT HEPATOCYTES, Metabolic Activation: NONE",active; positive
same,mutagenic call,"End Point: IN VITRO MICRONUCLEUS, Test System: SWINE- BRAIN ENDOTHELIAL CELLS, Metabolic Activation: NONE",active; positive
same,mutagenic call,"Test System: AMES SALMONELLA TYPHIMURIUM, Strain/Indicator: TA100, Metabolic Activation: NONE",inactive; negative
same,mutagenic call,"Test System: AMES SALMONELLA TYPHIMURIUM, Strain/Indicator: TA104, Metabolic Activation: NONE",inactive; negative
same,mutagenic call,"Test System: CHINESE HAMSTER V-79, Strain/Indicator: V-79/6-THIOGUANINE, Metabolic Activation: NONE",active; positive
same,mutagenic call,"Test System: MOUSE LYMPHOMA, Strain/Indicator: L5178Y (TK+/TK-), Metabolic Activation: NONE, Method: SUSPENSION/PLATE",active; positive; administered as acetate
O=[N+]([O-])c1ccccc1Nc1ccccc1,mutagenic call,"Test System: AMES SALMONELLA TYPHIMURIUM, Strain/Indicator: TA97, Metabolic Activation: HAMSTER, LIVER, S-9, AROCLOR 1254 (5, 10 OR 30%), Method: PREINCUBATION",inactive; negative
same,mutagenic call,"Test System: AMES SALMONELLA TYPHIMURIUM, Strain/Indicator: TA97, Metabolic Activation: NONE, Method: PREINCUBATION",inactive; negative
same,mutagenic call,"Test System: AMES SALMONELLA TYPHIMURIUM, Strain/Indicator: TA97, Metabolic Activation: RAT, LIVER, S-9, AROCLOR 1254 (10%), Method: PREINCUBATION",inactive; negative
same,mutagenic call,"Test System: AMES SALMONELLA TYPHIMURIUM, Strain/Indicator: TA97, Metabolic Activation: RAT, LIVER, S-9, AROCLOR 1254 (30%), Method: PREINCUBATION",inactive; negative
same,mutagenic call,"Test System: AMES SALMONELLA TYPHIMURIUM, Strain/Indicator: TA98, Metabolic Activation: HAMSTER, LIVER, S-9, AROCLOR 1254 (10%), Method: PREINCUBATION",inactive; negative
same,mutagenic call,[1],inactive; negative
same,mutagenic call,[2],inactive; negative
same,mutagenic call,"Test System: AMES SALMONELLA TYPHIMURIUM, Strain/Indicator: TA98, Metabolic Activation: RAT, LIVER, S-9, AROCLOR 1254 (10%), Method: PREINCUBATION",inactive; negative
same,mutagenic call,[3],inactive; negative
same,mutagenic call,"Test System: AMES SALMONELLA TYPHIMURIUM, Strain/Indicator: TA100, Metabolic Activation: HAMSTER, LIVER, S-9, AROCLOR 1254 (10%), Method: PREINCUBATION",inactive; negative
same,mutagenic call,[4],inactive; negative
same,mutagenic call,[5],inactive; negative
same,mutagenic call,"Test System: AMES SALMONELLA TYPHIMURIUM, Strain/Indicator: TA100, Metabolic Activation: RAT, LIVER, S-9, AROCLOR 1254 (10%), Method: PREINCUBATION",inactive; negative
same,mutagenic call,[6],inactive; negative
same,mutagenic call,"Test System: AMES SALMONELLA TYPHIMURIUM, Strain/Indicator: TA1535, Metabolic Activation: HAMSTER, LIVER, S-9, AROCLOR 1254 (10%), Method: PREINCUBATION",inactive; negative
same,mutagenic call,"Test System: AMES SALMONELLA TYPHIMURIUM, Strain/Indicator: TA1535, Metabolic Activation: HAMSTER, LIVER, S-9, AROCLOR 1254 (30%), Method: PREINCUBATION",inactive; negative
same,mutagenic call,"Test System: AMES SALMONELLA TYPHIMURIUM, Strain/Indicator: TA1535, Metabolic Activation: NONE, Method: PREINCUBATION",inactive; negative
same,mutagenic call,"Test System: AMES SALMONELLA TYPHIMURIUM, Strain/Indicator: TA1535, Metabolic Activation: RAT, LIVER, S-9, AROCLOR 1254 (10%), Method: PREINCUBATION",inactive; negative
same,mutagenic call,"Test System: AMES SALMONELLA TYPHIMURIUM, Strain/Indicator: TA1535, Metabolic Activation: RAT, LIVER, S-9, AROCLOR 1254 (30%), Method: PREINCUBATION",inactive; negative
C/C=C/Cl,mutagenic call,[7],active; positive
same,mutagenic call,"Test System: AMES SALMONELLA TYPHIMURIUM, Strain/Indicator: TA100, Metabolic Activation: RAT, LIVER, S-9, PCB OR PHENOBARBITAL, Method: DESICCATOR",active; positive
Cc1cnc2cc3nc(C)n(C)c3c(C)c2n1,mutagenic call,"Test System: AMES SALMONELLA TYPHIMURIUM, Strain/Indicator: TA98, Metabolic Activation: S-9, Method: PREINCUBATION",inactive; negative
CC(C)c1cc(N)c([N+](=O)[O-])cc1N,mutagenic call,[8],inactive; negative
same,mutagenic call,[9],active; positive
same,mutagenic call,[10],inactive; negative
same,mutagenic call,[11],inactive; negative
same,mutagenic call,"Test System: AMES SALMONELLA TYPHIMURIUM, Strain/Indicator: TA1535, Metabolic Activation: NONE, Method: STANDARD PLATE",inactive; negative
same,mutagenic call,"Test System: AMES SALMONELLA TYPHIMURIUM, Strain/Indicator: TA1535, Metabolic Activation: RAT, LIVER, S-9, AROCLOR 1254, Method: STANDARD PLATE",inactive; negative
same,mutagenic call,"Test System: AMES SALMONELLA TYPHIMURIUM, Strain/Indicator: TA1537, Metabolic Activation: NONE, Method: STANDARD PLATE",inactive; negative
same,mutagenic call,"Test System: AMES SALMONELLA TYPHIMURIUM, Strain/Indicator: TA1537, Metabolic Activation: RAT, LIVER, S-9, AROCLOR 1254, Method: STANDARD PLATE",inactive; negative
same,mutagenic call,"Test System: AMES SALMONELLA TYPHIMURIUM, Strain/Indicator: TA1538, Metabolic Activation: NONE, Method: STANDARD PLATE",inactive; negative
same,mutagenic call,"Test System: AMES SALMONELLA TYPHIMURIUM, Strain/Indicator: TA1538, Metabolic Activation: RAT, LIVER, S-9, AROCLOR 1254, Method: STANDARD PLATE",active; positive
ClCBr,mutagenic call,[12],active; positive
same,mutagenic call,"Test System: AMES SALMONELLA TYPHIMURIUM, Strain/Indicator: TA97, Metabolic Activation: RAT, LIVER, S-9, AROCLOR 1254, Method: STANDARD PLATE",active; positive
same,mutagenic call,[1],active; positive
same,mutagenic call,[2],active; positive
same,mutagenic call,[8],active; positive
same,mutagenic call,[3],active; positive
same,mutagenic call,[9],active; positive
same,mutagenic call,[4],active; positive
same,mutagenic call,[7],active; positive
same,mutagenic call,[5],active; positive
same,mutagenic call,[10],active; positive
same,mutagenic call,[6],active; positive
same,mutagenic call,[11],active; positive
same,mutagenic call,"Test System: AMES SALMONELLA TYPHIMURIUM, Strain/Indicator: TA104, Metabolic Activation: NONE, Method: STANDARD PLATE",active; positive
same,mutagenic call,"Test System: AMES SALMONELLA TYPHIMURIUM, Strain/Indicator: TA104, Metabolic Activation: RAT, LIVER, S-9, AROCLOR 1254, Method: STANDARD PLATE",inactive; negative
CCCCCCCC/C=C\CCCCCCCCCCCC(=O)NCCCCCCCCCCCCCCCCCC,mutagenic call,[12],inactive; negative
same,mutagenic call,"Test System: AMES SALMONELLA TYPHIMURIUM, Strain/Indicator: TA97, Metabolic Activation: S-9, Method: STANDARD PLATE",inactive; negative
same,mutagenic call,[8],inactive; negative
same,mutagenic call,"Test System: AMES SALMONELLA TYPHIMURIUM, Strain/Indicator: TA98, Metabolic Activation: S-9, Method: STANDARD PLATE",inactive; negative
same,mutagenic call,[10],inactive; negative
same,mutagenic call,"Test System: AMES SALMONELLA TYPHIMURIUM, Strain/Indicator: TA100, Metabolic Activation: S-9, Method: STANDARD PLATE",inactive; negative
same,mutagenic call,"Test System: AMES SALMONELLA TYPHIMURIUM, Strain/Indicator: TA102, Metabolic Activation: NONE, Method: STANDARD PLATE",inactive; negative
same,mutagenic call,"Test System: AMES SALMONELLA TYPHIMURIUM, Strain/Indicator: TA102, Metabolic Activation: S-9, Method: STANDARD PLATE",inactive; negative
same,mutagenic call,"Test System: E.COLI, Strain/Indicator: WP2 (PKM101), Metabolic Activation: NONE, Method: STANDARD PLATE",inactive; negative
same,mutagenic call,"Test System: E.COLI, Strain/Indicator: WP2 (PKM101), Metabolic Activation: S-9, Method: STANDARD PLATE",inactive; negative
